IC50, AC50 and CC50 data for nine compounds are collected here from ChEMBL document CHEMBL1201862, “PubChem BioAssay data set” (2004).

One assay deals with Major prion protein (Homo sapiens, UniProt P04156). In kind it is functional, cell-based.
The target in assay [1] is T1, COUP transcription factor 2 (Homo sapiens, UniProt P24468).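 Further: HEK293 cells transiently cotransfected with COUP-TFII expression vector and reporter; luciferase reporter luminescence driven by COUP-TFII from the pX2-168 reporter plasmid.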
T1 sequence (P24468 whole entry): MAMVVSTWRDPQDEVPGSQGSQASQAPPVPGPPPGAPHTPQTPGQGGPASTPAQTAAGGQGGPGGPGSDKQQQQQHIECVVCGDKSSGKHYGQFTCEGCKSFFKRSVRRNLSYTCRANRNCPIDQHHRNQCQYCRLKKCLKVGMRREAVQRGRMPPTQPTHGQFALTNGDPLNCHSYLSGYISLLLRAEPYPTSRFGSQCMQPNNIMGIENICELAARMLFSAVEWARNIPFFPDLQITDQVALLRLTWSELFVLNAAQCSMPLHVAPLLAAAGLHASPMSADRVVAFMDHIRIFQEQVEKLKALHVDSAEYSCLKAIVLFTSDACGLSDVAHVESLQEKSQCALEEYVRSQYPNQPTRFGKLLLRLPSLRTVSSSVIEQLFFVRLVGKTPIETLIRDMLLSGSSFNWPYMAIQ
As to the kind of experiment: Luminescence-based cell-based high throughput dose response assay to identify inhibitors of COUP-TFII (NR2F2). It counts as functional.

For a further assay, the target named is Prothrombin (Homo sapiens, UniProt P00734). Kind of assay: Thrombin 1536 HTS Dose Response Confirmation. [Related pubchem assays: 1046 (Thrombin 1536 HTS; hits were confirmed in this assay)]. It counts as functional.
Assay [2] deals with T2, DNA repair protein RAD52 homolog (Homo sapiens, UniProt P43351).
T2 sequence (P43351 whole entry): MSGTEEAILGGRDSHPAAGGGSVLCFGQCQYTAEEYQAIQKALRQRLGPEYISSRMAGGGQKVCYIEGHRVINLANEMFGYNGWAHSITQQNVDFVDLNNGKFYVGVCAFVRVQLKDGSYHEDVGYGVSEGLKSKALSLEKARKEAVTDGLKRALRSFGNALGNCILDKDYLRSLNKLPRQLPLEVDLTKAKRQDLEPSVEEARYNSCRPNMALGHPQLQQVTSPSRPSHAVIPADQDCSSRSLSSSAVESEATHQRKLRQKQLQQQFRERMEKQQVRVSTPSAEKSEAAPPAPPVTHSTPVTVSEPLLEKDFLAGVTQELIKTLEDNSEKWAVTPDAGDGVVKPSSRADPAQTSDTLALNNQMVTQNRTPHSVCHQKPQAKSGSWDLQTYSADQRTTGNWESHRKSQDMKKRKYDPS
It counts as functional, biochemical.

Assay [3] has as its target T3, Rac GTPase-activating protein 1 (Homo sapiens, UniProt Q9H0H5).
T3 sequence (Q9H0H5 whole entry): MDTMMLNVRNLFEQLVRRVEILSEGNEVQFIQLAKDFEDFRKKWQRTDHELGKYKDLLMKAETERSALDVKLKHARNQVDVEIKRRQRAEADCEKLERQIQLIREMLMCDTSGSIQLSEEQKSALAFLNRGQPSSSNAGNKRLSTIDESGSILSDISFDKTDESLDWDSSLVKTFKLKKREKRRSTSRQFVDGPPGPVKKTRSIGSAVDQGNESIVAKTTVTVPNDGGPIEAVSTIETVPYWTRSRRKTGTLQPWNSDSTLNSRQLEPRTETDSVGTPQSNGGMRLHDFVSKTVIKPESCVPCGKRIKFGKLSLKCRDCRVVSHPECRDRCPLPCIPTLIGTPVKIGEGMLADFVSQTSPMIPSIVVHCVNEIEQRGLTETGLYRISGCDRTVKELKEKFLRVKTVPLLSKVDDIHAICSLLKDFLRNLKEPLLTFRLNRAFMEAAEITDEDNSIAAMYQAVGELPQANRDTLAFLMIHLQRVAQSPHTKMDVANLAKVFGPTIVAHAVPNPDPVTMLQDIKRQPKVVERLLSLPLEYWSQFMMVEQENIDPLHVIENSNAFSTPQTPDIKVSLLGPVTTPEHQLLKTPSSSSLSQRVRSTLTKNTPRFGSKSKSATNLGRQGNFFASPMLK
As to the kind of experiment: MgcRacGAP GTPase-activating activity inhibitors, confirmation, biochemical, ADP Hunter fluorescence, primary and confirmatory (AID 624330). It counts as functional.

Assay [4] deals with T4, DNA repair and recombination protein RAD54-like (Homo sapiens, UniProt Q92698).
T4 sequence (Q92698 whole entry): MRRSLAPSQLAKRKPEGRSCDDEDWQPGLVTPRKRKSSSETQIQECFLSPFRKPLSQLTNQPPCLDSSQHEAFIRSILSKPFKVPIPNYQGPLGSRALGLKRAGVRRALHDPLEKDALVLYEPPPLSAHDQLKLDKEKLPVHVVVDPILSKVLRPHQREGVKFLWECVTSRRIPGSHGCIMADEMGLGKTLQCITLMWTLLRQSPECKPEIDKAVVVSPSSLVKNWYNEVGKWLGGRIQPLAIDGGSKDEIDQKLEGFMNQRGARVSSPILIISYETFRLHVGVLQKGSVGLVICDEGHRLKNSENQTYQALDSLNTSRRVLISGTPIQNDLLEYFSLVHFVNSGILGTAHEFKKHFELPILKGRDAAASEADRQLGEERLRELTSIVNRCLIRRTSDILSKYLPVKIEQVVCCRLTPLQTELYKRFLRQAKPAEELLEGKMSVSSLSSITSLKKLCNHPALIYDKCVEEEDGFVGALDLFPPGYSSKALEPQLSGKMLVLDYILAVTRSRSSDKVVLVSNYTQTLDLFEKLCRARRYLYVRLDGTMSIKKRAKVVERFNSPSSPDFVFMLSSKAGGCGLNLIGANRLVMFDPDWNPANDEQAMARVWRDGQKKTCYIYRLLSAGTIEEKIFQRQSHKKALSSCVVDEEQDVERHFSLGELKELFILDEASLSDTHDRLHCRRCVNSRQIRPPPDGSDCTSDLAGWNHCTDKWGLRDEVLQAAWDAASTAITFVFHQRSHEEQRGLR
Kind of assay: inhibitors of human RAD54 branch migration, confirmation, biochemical, fluorescence, cherry-picked samples, dose series (AID 651657). It counts as functional.

A further assay has as its target Paired box protein Pax-8 (Homo sapiens, UniProt Q06710). As to the kind of experiment: inhibitors of PAX8-driven TPO luciferase reporter, dose response, RMG-I cells, cherry-pick (AID 687027).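 Further: luciferase reporter driven by Pax8 target thyroperoxidase promoter measured by SteadyGlo luminescence.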 In kind it is functional, cell-based.
Assay [5] in a line: non-specific cell cytotoxicity, dose response, cytotoxicity control for PAX8 inhibitor project, plate reader, dry powder samples (AID 743021). In kind it is functional, cell-based.
For the next assay, the target named is T5, Caspase-6 (Homo sapiens, UniProt P55212).
T5 sequence (P55212 whole entry): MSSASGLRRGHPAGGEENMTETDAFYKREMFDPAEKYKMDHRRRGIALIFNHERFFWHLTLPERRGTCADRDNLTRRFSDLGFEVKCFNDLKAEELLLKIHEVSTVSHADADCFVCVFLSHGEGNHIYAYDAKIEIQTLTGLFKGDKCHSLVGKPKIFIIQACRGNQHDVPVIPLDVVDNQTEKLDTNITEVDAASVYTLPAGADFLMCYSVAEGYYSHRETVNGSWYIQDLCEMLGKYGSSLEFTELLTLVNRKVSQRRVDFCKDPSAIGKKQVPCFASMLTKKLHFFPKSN
As to the kind of experiment: human caspase-6 inhibitors, dose response, biochemical, VEID-R110 fluorescence, cherry-pick (AID 720632).

Assay [6] in a line: HeLa cell cytotoxicity, dose response, cytotoxicity control for MgcRacGAP inhibitor project (AID 624300). In kind it is functional.
Assay [7] deals with T6, Histone-lysine N-methyltransferase NSD2 (Homo sapiens, UniProt O96028).
T6 sequence (O96028 whole entry): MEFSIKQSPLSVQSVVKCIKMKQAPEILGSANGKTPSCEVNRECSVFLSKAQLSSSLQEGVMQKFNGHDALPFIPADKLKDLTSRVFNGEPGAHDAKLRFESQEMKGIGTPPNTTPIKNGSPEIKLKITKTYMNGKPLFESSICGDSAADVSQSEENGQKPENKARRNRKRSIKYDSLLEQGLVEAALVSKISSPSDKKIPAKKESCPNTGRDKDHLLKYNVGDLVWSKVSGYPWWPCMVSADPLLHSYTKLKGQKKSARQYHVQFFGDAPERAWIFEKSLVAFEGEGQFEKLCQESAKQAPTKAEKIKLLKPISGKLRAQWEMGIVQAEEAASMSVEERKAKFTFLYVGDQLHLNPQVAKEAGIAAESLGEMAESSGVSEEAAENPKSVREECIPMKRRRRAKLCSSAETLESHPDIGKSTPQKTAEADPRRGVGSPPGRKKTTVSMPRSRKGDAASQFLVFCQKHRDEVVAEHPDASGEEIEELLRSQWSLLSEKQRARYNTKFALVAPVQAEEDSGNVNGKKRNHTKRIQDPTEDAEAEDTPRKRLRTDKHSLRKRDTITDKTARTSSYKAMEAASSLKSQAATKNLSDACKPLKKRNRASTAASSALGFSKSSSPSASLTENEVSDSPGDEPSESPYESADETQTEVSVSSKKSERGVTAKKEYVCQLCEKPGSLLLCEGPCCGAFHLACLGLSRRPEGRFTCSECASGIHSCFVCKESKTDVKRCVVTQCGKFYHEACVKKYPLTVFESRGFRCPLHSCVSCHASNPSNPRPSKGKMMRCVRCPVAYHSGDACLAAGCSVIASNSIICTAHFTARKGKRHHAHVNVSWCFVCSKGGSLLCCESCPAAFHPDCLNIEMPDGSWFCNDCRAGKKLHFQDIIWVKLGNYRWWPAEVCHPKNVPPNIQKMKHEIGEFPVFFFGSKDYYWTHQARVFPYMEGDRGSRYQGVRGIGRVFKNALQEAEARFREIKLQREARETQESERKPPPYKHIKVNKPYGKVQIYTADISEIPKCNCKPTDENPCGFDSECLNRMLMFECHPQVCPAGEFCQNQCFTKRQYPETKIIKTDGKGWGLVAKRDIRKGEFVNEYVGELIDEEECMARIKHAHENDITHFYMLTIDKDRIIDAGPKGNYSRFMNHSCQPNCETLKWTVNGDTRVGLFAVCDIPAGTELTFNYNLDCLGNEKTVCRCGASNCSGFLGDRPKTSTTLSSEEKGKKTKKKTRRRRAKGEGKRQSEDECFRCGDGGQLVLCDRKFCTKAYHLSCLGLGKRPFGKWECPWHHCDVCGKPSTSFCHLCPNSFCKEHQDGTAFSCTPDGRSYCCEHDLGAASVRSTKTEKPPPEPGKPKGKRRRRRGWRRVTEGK
In kind it is biochemical.

Assay [8] can be described thus: Shn3 3'UTR reporter inhibitors, dose response, cell-based, Clone20 osteoblasts, firefly luciferase, cherry-picked (AID 624132).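 Further: firefly luciferase luminescence from reporter carrying the Shn3 3'UTR in osteoblasts.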 In kind it is functional.
Assay [9] in a line: HepG2 cell cytotoxicity, dose response, cytotoxicity control for Shn3 inhibitor project, CellTiter-Glo, cherry-picked (AID 624134). It counts as functional, cell-based.
The nature of assay [10]: control 3'UTR Renilla luciferase suppression, dose response, counter-screen for Shn3 inhibitor project, cell-based, Clone20-Shn3RL, cherry-picked (AID 624133). In kind it is functional.
Another assay addresses Genome polyprotein (dengue virus type 2, UniProt P29990). Kind of assay: Dengue-2 NS5 methyltransferase inhibitors, primary screen, biochemical, confirmation dose response (AID 588689). In kind it is functional.

SMILES strings stand for the structures. Activity calls are given as the source filed them.

In the case of `O=C(COC(=O)CSc1ccc2ccccc2c1Br)NC1CC1`, the IC50 at Major prion protein is 4.72 µM (active); in the assay “cells”, > 138 µM (inactive).
As to `CCOCCCN=C(S)N1CCN(c2nc(-c3ccc(F)cc3)cs2)CC1`, in assay [1], the IC50 was 8.63 µM (active).
`CN(C)CCCNc1ncnc2sc(-c3ccccc3)cc12`: the IC50 against Prothrombin is > 50 µM (not active); in [3] it was 29.9 µM (active). The AC50 in [2] is 14.6 µM (active); in assay [4] it was 17.4 µM (active).
As to `Cc1cc2cccc(C)c2nc1SCC(=O)NNC(=O)c1ccco1`, the IC50 at Major prion protein is 7.04 µM (active); in the assay “cells”, > 138 µM (inactive).
As for `Cn1c(=S)sc2ccc3ccccc3c21`, the values for the IC50 at Major prion protein and in “cells” were 6.25 µM (active) and 138 µM (inactive), respectively.
For the compound `Cc1cc(=O)n2c3c(c4c(cc13)c(CN(C)C)cc(=O)n4C)OC2`, the AC50 on Paired box protein Pax-8 is 16.8 µM (active); in assay [5] it was 50 µM (active); on Caspase-6, 4.06 µM (active).
Regarding `CCN(CC)CC(C)(C)C(=O)/C=C/c1ccc(/C=C/C(=O)C(C)(C)CN(CC)CC)cc1`, in assay [3], the IC50 was 158 µM (active). Moreover, in [6], the CC50 is 65.5 µM (active). Besides, the AC50 is 2.2 µM (active) on Paired box protein Pax-8; > 20 µM (inactive) in assay [7]; 0.468 µM (active) in [8]; 5.07 µM (active) in [9]; 1.78 µM (active) in assay [10].
Consider `CC1=C/C(=C(\c2cc(C)c(O)c(Br)c2)c2ccccc2S(=O)(=O)O)C=C(Br)C1=O`, for which the IC50 in assay [3] was 79.4 µM (active); on Genome polyprotein it was 53.2 µM (active). Also, in assay [6], the CC50 was 100 µM (active). Further, in assay [7], the concentration at half-maximal activity (AC50) was 14.6 µM (active).
For the compound `CCC(OC(=O)c1ccc(S(C)(=O)=O)c([N+](=O)[O-])c1)C(=O)NC1C2CC3CC(C2)CC1C3` (stereo not given), the AC50 was 8.07 µM (active) at Paired box protein Pax-8; 31.1 µM (active) in [5]; 1.66 µM (active) in [8]; 7.27 µM (active) in assay [9]; 4.49 µM (active) in assay [10].
